Where two headings read alike, the source gives them in different places.
How the values were obtained:
Type in all cases: cell-based
[1] = system: B16-F10 melanoma cell line; assay: PrestoBlue cytotoxicity assay against B16-F10 melanoma cells; conditions: 24 h incubation, run twice and averaged
Procedure: (§1) A normal cell (CV-1 kidney fibroblast cells) and two cancer cell lines (MCF-7 breast cancer and B16-F10 melanoma cells) were used to test the cytotoxic activities of compounds 1–7. In this experiment, two wavelengths (570 and 600 nm) were used because the measured cells were live cells so, to obtain the value/number of live cells, measurements were carried out at two wavelengths, namely before the reaction (blue) and after the reaction (pink) to produce a corrected absorbance value, which was interpreted as the number live cells after treatment. The results arising from the experiments, along with IC50 calculation graphs and cell morphology at each sample concentration, are presented in Figures S38–S58.
(§2) The PrestoBlue assay was utilized to conduct the cytotoxic bioassay. Additionally, Presto Blue reagent from Thermo Fisher Scientific, Uppsala, Sweden, was used to measure cell viability, which allowed for rapid evaluation of various resazurin-based cells. The rate of proliferation of the samples was then determined quantitatively through live-cell reduction capabilities. According to the findings, healthy cells kept a reduced habitat in their cytoplasm. By reducing resorufin (purple) with absorbance or fluorescence outputs, resazurin reduction (blue) acted as a viability indicator. The conversion correlated with the number of cells that were metabolically active. MCF-7, B16-F10, and CV-1 cell lines were cultured until they reached 70% confluence, and then they were removed, counted with a hemocytometer, and diluted with complete culture RPMI media. A total of 170,000 cells per well in 96-well plates with the samples were used. After an overnight growth period, the samples were treated with compounds 1–7 at escalating concentrations ([…]) in PBS, with 2% DMSO as the co-solvent. Additionally, cisplatin served as the positive control, and all samples were incubated for 24 h at 37° C with 5% CO2. Following incubation, the medium was immediately changed to 10 μL of the PrestoBlue reagent in 90 μL of the RPMI medium. As resorufin began to form, the color of the plates changed from blue to purple after being incubated for another one to two hours. Using a microplate reader to measure absorbance at 570 nm and 600 nm, the concentration required to inhibit growth by 50% was calculated as the IC50 value. […] The results of each test and analysis were averaged after being run twice.

[2] = system: MCF-7 breast cancer cell line; assay: PrestoBlue cytotoxicity assay against MCF-7 breast cancer cells; conditions: MCF-7, PrestoBlue, 24 h incubation, run twice and averaged
Procedure: as §1, §2

[3] = system: CV-1 normal kidney fibroblast cell line; assay: cells
Procedure: as §1, §2

[4] = Mus musculus, read-out: IC50 for B16-F10
[5] = Mus musculus, read-out: IC50 for B16-F10 (μg/mL)
[6] = Homo sapiens, MCF7, read-out: IC50 for MCF-7
[7] = Homo sapiens, MCF7, read-out: IC50 for MCF-7 (μg/mL)
[8] = Fibroblast, CV-1 normal cells, PrestoBlue, 24 h incubation, run twice and averaged, read-out: IC50 for CV-1
[9] = Fibroblast, CV-1 normal cells, PrestoBlue, 24 h incubation, run twice and averaged, read-out: IC50 for CV-1 (μg/mL)

| Compound | IC50 for B16-F10 [1] [µg/mL] | IC50 ([1]; read-out: IC50 for B16-F10) [µM] | IC50 for MCF-7 [2] [µg/mL] | IC50 ([2]; read-out: IC50 for MCF-7) [µM] | IC50 for CV-1 ([3]; CV-1 normal cells, PrestoBlue, 24 h incubation, run twice and averaged) [µg/mL] | IC50 ([3]; CV-1 normal cells, PrestoBlue, 24 h incubation, run twice and averaged, read-out: IC50 for CV-1) [µM] | IC50 [1, 4] [µM] | IC50 [1, 5] [µg/mL] | IC50 [2, 6] [µM] | IC50 [2, 7] [µg/mL] | IC50 [3, 8] [µM] | IC50 [3, 9] [µg/mL] | cell death based on morphological observation [3] |
| --- | --- | --- | --- | --- | --- | --- | --- | --- | --- | --- | --- | --- | --- |
| N.N.[Cl][Pt][Cl] [Cisplatin, cisplatin, reference compound] | 43.00 | 143 | 53.00 | 176 | 43.00 | 143 | – | – | – | – | – | – | – |
| CC(=O)O[C@@H]1CC[C@@]2(C)C(CC[C@]3(C)C2CCC2C([C@]4(C)CCC(=O)O4)CC[C@]23C)C1(C)C (stereo partly drawn) [Compound 6, 3α-acetyl-cabraleahydroxy lactone] | – | – | – | – | – | – | 274 | 126 | 274 | 126 | 285 | 131 | – |
| C=C(CCC=C(C)C)C1CC[C@]2(C)C1CC[C@@H]1[C@@]3(C)CCC(=O)C(C)(C)C3CC[C@]12C (stereo partly drawn) [Compound 2, dammaradienone] | – | – | – | – | – | – | 129 | 54.8 | 132 | 56.1 | 195 | 82.8 | – |
| CC(C)(O)[C@@H]1CC[C@@](C)(C2CC[C@]3(C)C2CCC2[C@@]4(C)CC[C@@H](O)C(C)(C)C4CC[C@]23C)O1 (stereo partly drawn) [Compound 1, 20S,24S-epoxy-3α,25-dihydroxy-dammarane] | – | – | – | – | – | – | 97.3 | 44.8 | 142 | 65.5 | 174 | 80.1 | – |
| COC1CC[C@@](C)(C2CC[C@]3(C)C2CCC2[C@@]4(C)CCC(=O)C(C)(C)C4CC[C@]23C)O1 (stereo partly drawn) [Compound 5, (20S,24RS)-23,24-epoxy-24-methoxy-25,26,27-tris-nor dammar-3-one] | – | – | – | – | – | – | 105 | 45.4 | 133 | 57.3 | > 300 | > 300 | no cell death at all concentration levels |
| CC(=O)O[C@@H]1CC[C@@]2(C)C(CC[C@]3(C)C2CCC2C([C@]4(C)CC[C@@H](C(C)(C)O)O4)CC[C@]23C)C1(C)C (stereo partly drawn) [Compound 7, 3α-acetyl-20S,24S-epoxy-3α,25-dihydroxydammarane] | – | – | – | – | – | – | 158 | 79.4 | 195 | 97.9 | > 300 | > 300 | no cell death at all concentration levels |
| CC(C)=CCC[C@](C)(O)C1CC[C@]2(C)C1CC[C@@H]1[C@@]3(C)CCC(=O)C(C)(C)C3CC[C@]12C (stereo partly drawn) [Compound 3, 20S-hydroxy-dammar-24-en-3-on] | – | – | – | – | – | – | 111 | 49.1 | > 300 | 142 | > 300 | > 300 | no cell death at all concentration levels |
| C=C(C)[C@@H]1CC[C@]2(C)[C@H](CC[C@@H]3[C@@H]([C@]4(C)CC[C@@H](C(C)(C)O)O4)CC[C@]32C)[C@@]1(C)CCC(=O)O [Compound 4, eichlerianic acid] | – | – | – | – | – | – | > 300 | 275 | > 300 | > 300 | 288 | 137 | – |

Source: paper PMC10343279, “The Cytotoxic Activity of Dammarane-Type Triterpenoids Isolated from the Stem Bark of Aglaia cucullata (Meliaceae)” (Molecules, 2023)
